This is an account of results in paper PMC10961359, “Targeting hexokinase 2 for oral cancer therapy: structure-based design and validation of lead compounds” (Frontiers in Pharmacology, 2024).

Molecules are shown by their SMILES. “Also recorded” adds a separate entry of the source. Like-named read-outs stand apart in the source and are kept apart here. Some results are limits rather than exact numbers.

The test system of experiment [1] is FaDu cells. Briefly: 2-NBDG glucose uptake assay (flow cytometry), FaDu. In kind it is cell-based. The settings on record: 10 μM and 30 μM, 72 h, vs DMSO control. On the procedure: (§1) FaDu and Cal27 cells were treated with test compounds (0.2 million cells per treatment) and were incubated for 1 h with 100 μM of 2-NBDG (Invitrogen, N13195), in glucose free medium, washed with ice-cold PBS, and re-suspended in 500 μL of PBS and maintained on ice to perform flow cytometric analyses within 30 min. The mean fluorescent intensity (MFI) readout reflects the amount of fluorescent glucose analog taken up by the cells, providing insight into their glucose uptake capacity. The percent (%) cell population positive for glucose uptake (shown with a right shift of the histogram peaks) were also plotted for both the cell lines. For MMP analysis, cells were incubated with 200 nM of TMRE (Invitrogen, T669) for 30 min. For each measurement, data was collected for 10,000 events using a BD FACS Aria III (Becton Dickinson, San Jose, CA) instrument.
(§2) 2-[N-(7-Nitrobenz-2-oxa-1,3-diaxol-4-yl) amino]-2-deoxyglucose (2-NBDG) uptake into cells happens via glucose transporters and post uptake 2-NBDG gets phosphorylated by hexokinases. Since cancer cells represent higher glycolytic activity, the inhibition of HK2 activity in cancer cells is actively reflected in the inhibition of 2-NBDG uptake ([Hung et al., 2022]; [Li et al., 2022]). […] In this assay, the MFI of intracellular 2-NBDG serves as a quantitative measure of cellular glucose uptake. […] This finding is further supported by the increased % population of 2-NBDG positive cells in Cal27 cells compared to FaDu cells (Figure 3).
In general terms: In flow cytometry, cells or beads pass a laser one at a time.

For experiment [2], the system named is Cal27 cells. As to the kind of experiment: 2-NBDG glucose uptake assay (flow cytometry), Cal27. In kind it is cell-based. The following applies: Cal27, 10 μM and 30 μM, 72 h, vs DMSO control. On the procedure: as §1, §2
Experiment [3] deals with T1, HK2 (Homo sapiens, UniProt P52789).
T1 construct: purchased Abcam ab211114
T1 sequence (P52789 1-917): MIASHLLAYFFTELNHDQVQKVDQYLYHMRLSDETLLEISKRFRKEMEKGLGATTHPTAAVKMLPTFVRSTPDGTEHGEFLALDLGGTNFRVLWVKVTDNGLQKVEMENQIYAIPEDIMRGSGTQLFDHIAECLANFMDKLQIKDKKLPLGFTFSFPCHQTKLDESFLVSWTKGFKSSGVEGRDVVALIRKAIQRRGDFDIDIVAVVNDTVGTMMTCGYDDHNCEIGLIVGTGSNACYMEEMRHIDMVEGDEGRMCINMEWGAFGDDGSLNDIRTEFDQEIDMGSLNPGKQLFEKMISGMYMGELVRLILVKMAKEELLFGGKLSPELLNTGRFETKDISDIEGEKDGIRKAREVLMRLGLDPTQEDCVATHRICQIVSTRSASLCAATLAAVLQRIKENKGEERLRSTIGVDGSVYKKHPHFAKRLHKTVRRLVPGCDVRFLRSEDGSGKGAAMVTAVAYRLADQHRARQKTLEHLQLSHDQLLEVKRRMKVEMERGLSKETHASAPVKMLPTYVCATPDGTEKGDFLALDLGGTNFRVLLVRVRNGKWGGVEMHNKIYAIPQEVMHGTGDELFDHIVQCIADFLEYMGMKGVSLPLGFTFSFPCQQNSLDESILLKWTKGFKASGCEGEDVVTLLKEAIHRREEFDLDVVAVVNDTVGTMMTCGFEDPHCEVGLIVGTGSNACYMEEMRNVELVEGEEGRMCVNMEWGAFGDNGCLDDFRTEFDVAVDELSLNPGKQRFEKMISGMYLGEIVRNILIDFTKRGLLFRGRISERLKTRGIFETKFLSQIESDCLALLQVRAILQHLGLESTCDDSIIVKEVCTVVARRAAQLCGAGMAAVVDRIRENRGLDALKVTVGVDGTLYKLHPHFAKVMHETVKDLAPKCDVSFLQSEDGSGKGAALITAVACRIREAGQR
The following applies: ref Liu and Liu, 2022; read-out: IC50 as reported against HK2; cited from earlier work.

The subject of experiment [4] is Cal27 oral cancer cells. Briefly: MTT antiproliferative assay, Cal27. It is filed as cell-based. The settings on record: Homo sapiens, read-out: GI50 for Cal27. The procedure:
(§3) FaDu cell line was cultured in RPMI-1640 medium containing L-glutamine (300 mg/L) and sodium bicarbonate (2 g/L), while Cal27, HEK293 and HFF-1 cell lines were cultured in DMEM medium containing glucose (4.5 g/L), L-glutamine (584 mg/L) and sodium bicarbonate (3.7 g/L). For gene expression and qPCR studies, RNA isolation was performed using Trizol (Thermo). The reagents and the primer sequences employed for the qPCR assays have been described previously ([Chakraborty et al., 2022]).
(§4) The hits derived from the docking study were sourced from either commercial suppliers or pre-existing compounds within our laboratory or were synthesized anew. The FaDu and Cal27 oral cancer cells were treated with the compounds for 72 h at concentrations of 3, 10, 30, and 100 μM. A post-treatment MTT assay was done to evaluate their antiproliferative activity. Table S2 represents the anti-proliferative and enzyme inhibitory activity of the compounds obtained as hits from the structure-based drug design strategy. […] Consequently, 50 μM of all the hit compounds were evaluated for their HK2 enzyme inhibitory activity. 50 μM of compounds were incubated with HK2 protein and the rate of reaction was assessed in kinetic mode (rate of conversion of NAD to NADH). The choice of 50 μM concentration was based primarily on MTT assays and GI50 calculation. The average GI50 values of the hit compounds against less sensitive FaDu cell line was approximately 50 μM. Considering this information, we reasoned that utilizing a concentration equivalent to the average GI50 would allow us to assess the maximum inhibitory effect of the compounds on HK2 enzyme activity. […] The same compounds have been previously reported by our team to have EGFR phosphorylation inhibitory potential and were coded as H2 (compound 14) and H10 (compound 11) ([Chakraborty et al., 2022]). […] Figures 1C,D show the lead compounds H2 and H10 at the active site of HK2 enzyme interacting via H-bonds with the amino acid residues.

Experiment [5] concerns the target T1, HK2. Briefly: HK2 enzyme inhibition assay (Abcam kit ab211114). In kind it is biochemical. The settings on record: read-out: % inhibition of HK2 enzyme activity at 50 µM. On the procedure: The HK2 enzyme inhibition assay was performed using an HK2 inhibitor assay kit (Abcam, ab211114) according to the manufacturer’s instructions. Initially, 50 µM compound concentration was used to perform the enzyme activity inhibition studies, after which IC50 of the top leads were determined.
as §4

Experiment [6] deals with FaDu oral cancer cells. As to the kind of experiment: MTT antiproliferative assay, FaDu. The following applies: for GI50: Homo sapiens, FaDu, read-out: GI50 for FaDu. In kind it is cell-based. On the procedure: as §3, §4

`O=C(O)C(=O)CBr` [Compound 1, 3-Bromo pyruvic acid]: the “2-NBDG MFI” value in experiment [1] and in experiment [2] was “significant reduction” in each case. Also, the 50% inhibitory concentration (IC50) (as a rule, the concentration needed to halve the response being measured) in experiment [3] is < 5 µM. Also, the GI50 (as a rule, the concentration at which growth is held to half of that of the control) in experiment [4] (CAL-27, 72 h) stood at 36.4 µM; in experiment [6] (72 h), 23.9 µM. The inhibition (in general, the drop in the measured response relative to a control, in per cent) at 50 µM in experiment [5] was 88.2%.

For the compound `O=CC[C@@H](O)[C@H](O)[C@H](O)CO` [Compound 15, 2-Deoxy Glucose], the “2-NBDG MFI” value in experiment [1] and in experiment [2] was “significant reduction” each time. For the same compound, the GI50 was 77.6 µM in experiment [4] (CAL-27, MTT, 72 h treatment, mean ± SEM) and > 100 µM in experiment [6] (MTT, 72 h treatment, mean ± SEM). In addition, the “GI50 for FaDu” value in experiment [6] (MTT, 72 h treatment, mean ± SEM, listed as 2-DG) is reported as “no efficacy; also recorded: limited efficacy”.
